Results taken from patent US6133322A, “Quinone derivatives for treating or preventing diseases associated with iron overload” (Institut National de la Sante et de la Recherche Medicale …, priority 1998, dated 2000).
One block for each molecule: values may come before it.

Tests used:
membrane lipids = assay: Iron-induced peroxidation of membrane lipids (cis-parinaric acid fluorescent probe) in human heart homogenates; type: biochemical; conditions: for iron-induced damages of the membrane components (in words): in vitro system, summary; for peroxidation of membrane lipids (in words): FIG. 1A, iron form added to heart homogenate
Description: (§1) Human heart homogenates were used as an in vitro model to mimic the action of iron on mitochondrial ISPs and to test the potentially protective effect of various substances.
(§2) These homogenates were prepared under low iron-chelating conditions using the procedures described in Rustin P. et al., Biochemical and molecular investigations in respiratory chain deficiencies, Clin. Chim. Acta., 228, 35-51 (1994). Briefly, homogenate from frozen human heart was obtained surgically and prepared at ice-melting temperature in a 0.1 M Tris-HCI buffer (pH 7.3) by five strokes of hand-driven ground glass potter using the procedures described in Sanchez-Casis et al., Pathology of the heart in Friedreich's ataxia: review of the literature and report of one case, Can. J. Neurol. Sci., 3, 349-354 (1977). After filtering through a 90 μm nylon net, homogenate was sampled and frozen at -80° C. for enzyme studies.
(§3) The endogenous antioxidant defenses of heart mitochondria were neutralized by simple dilution, and free access of iron to its specific targets was achieved by freeze-thaw disrupting mitochondrial membranes.
Lipoperoxidation, a marker of non-specific peroxidative damages caused to membrane components, was monitored in the presence of either reduced or oxidized iron. Cis-parinaric acid (c-PN) was used as a fluorescent probe for lipoperoxidation (15,16). Measurements were performed in a 37° C. thermostated quartz cell, magnetically stirred, and containing 2 ml 0.1 M Tris-HCI buffer (pH 7.3) using a LS540B Spectrofluorimeter (Perkin-Elmer, England). Excitation: 318 nm; 5 nm band-pass Emission: 410 nm; 5 nm band-pass.
(§4) Lipids peroxidation, complex II activity, and aconitase activity were monitored according to the methods of example 1 above.

aconitases = assay: Aconitase activity (aconitate accumulation at 240 nm in the presence of citrate) in human heart homogenate; type: biochemical; conditions: for Iron-induced damages to: Aconitases: 5 nM Fe^2+ + 2 nM EDTA + 6 U of the one enzyme
Description: as §1, §2, §3
(§5) The activities of two enzymes specifically targeted in FRDA, namely membrane-bound respiratory chain complex II and soluble (mitochondrial plus cytosolic) aconitases, were monitored under either low or high iron chelating conditions, in the presence of either reduced or oxidized iron. Complex II activity was measured on freeze-thaw heart homogenate as the dichlorophenolindophenol quinone reductase (DCPIP) (14). Aconitase activity in heart homogenate, corresponding to the combined mitochondrial and cytosolic enzyme activities, was measured by following the aconitate accumulation at 240 nm in the presence of citrate (6). All measurements were performed using a DW2000 Aminco Spectrophotometer (SLM, USA) in a 37° C. thermostated quartz cell, magnetically stirred, and containing 2 ml 0.1 M Tris-HCI buffer (pH 7.3).
as §4
Aconitase was assayed after additional 3 min incubation with 250 μM desferrixamine. Trace b: Aconitase activity measured after 6 min incubation in Tris-HCI buffer containing 250 μM desferrioxamine in the absence of Fe^2+.

complex II = assay: Complex II activity (succinate quinone DCPIP reductase) in freeze-thaw human heart homogenate; type: biochemical; conditions: for protection of complex II from iron induced damages (in words): succinate alone or 60 μM oxidized idebenone alone, FIG. 2C traces a, b
Description: as §1, §2, §3, §5, §4

FRDA patients = assay: Idebenone administration in FRDA patients: cardiac hypertrophy and cerebellar ataxia; type: in vivo, human
Description: Based on the previous in vitro data and owing to the innocuousness of the drug, five children ranging in age from 71/2 to 14 years and two young adults, all diagnosed with FDRA, were given idebenone orally (5 mg/kg/day).
The results observed after a course of treatment ranging from about 4 to about 9 months of administration at this dosage, are shown in FIG. 3:
A) Follow up of heart ultrasound parameters in patients 1, 6 and 7. LV: left ventricle. Note the decreased septal and left ventricle posterior wall thickness;
B) changes in cerebellar ataxia noted by parents and uninformed teachers. ®: Unchanged; : decrease; 0: No initial involvement.

[1] = quinone reduced in situ by the respiratory chain (succinate)
[2] = idebenone orally 5 mg/kg/day, about 4 to about 9 months
[3] = noted by the parents and uninformed teachers
[4] = 5 nM Fe^2+ + 50 μM quinone, no succinate
[5] = 5 nM Fe^2+ + 10 mM succinate + 50 μM quinone

decrease in aconitase activity (in words) (aconitases; 200 μM desferrioxamine alone, 6 min pre-incubation, no Fe^2+, FIG. 2D trace b): no decrease in enzyme activity | loss of aconitase activity (aconitases; 250 μM desferrioxamine + 5 nM reduced iron, FIG. 1C trace d): 80% | inhibition of aconitase activity (in words) (aconitases; desferrioxamine in the absence of iron, FIG. 1C trace c): No inhibition of aconitase activity
Molecule: CC(=O)N(O)CCCCCNC(=O)CCC(=O)N(O)CCCCCNC(=O)CCC(=O)N(O)CCCCCN [desferrioxamine]
Iron-induced damages to: Lipids (membrane lipids; 5 nM Fe^2+ + 120 μM desferrioxamine): 0 ± 1%

protection of complex II activity (in words) (complex II; succinate and 60 μM idebenone added simultaneously (20% of idebenone reduced), FIG. 2C trace c): full protection
Molecule: COC1=C(OC)C(=O)C(CCCCCCCCCCO)=C(C)C1=O [idebenone, 6-(10-hydroxydecyl)-2,3-dimethoxy-5-methyl-1,4-benzoquinone]
Iron-induced damages to: Lipids (membrane lipids; 5 nM Fe^2+ + 60 μM idebenone, no succinate): -63 ± 4% | Iron-induced damages to: Lipids (membrane lipids; 5 nM Fe^2+ + 10 mM succinate + 60 μM idebenone): -1 ± 0.4% | protection against iron-induced lipoperoxidation (in words) (membrane lipids; 60 μM oxidized idebenone, 3 min, no succinate, FIG. 2A trace a): No protection | protection against iron-induced lipoperoxidation (in words) (membrane lipids; idebenone reduced in situ by succinate (about 2 μM reduced), FIG. 2A trace b): significant protection | protection against iron-induced lipoperoxidation (in words) (membrane lipids; longer incubation with succinate (12 μM reduced; 20% of total idebenone), FIG. 2A trace c): enhanced | protection of membrane lipids against iron injury (in words) (membrane lipids; [1]): efficiently protected | protection of membrane-anchored complex II against iron injury (in words) (complex II; [1]): efficiently protected | protection of complex II from iron induced damages (in words) (complex II): did not protect complex II | prevention of the loss of aconitase activity induced by water-soluble chelators in the presence of reduced iron (in words) (aconitases; Table 2): neither succinate nor idebenone nor succinate+idebenone prevents the loss of aconitase activity | myocardial hypertrophy (in words) (FRDA patients; 4 to 9 month regime, five FRDA patients): significant decrease | deep tendon reflexes (in words) (FRDA patients; after a 9 month course): have not reappeared | improvement of asynergia/dysmetria (finger-nose test) (patients improved/total) (FRDA patients; [2]): 3/5 | improvement of delicate movements (handwriting) (patients improved/total) (FRDA patients; [2]): 4/5 | improvement of gait ataxia (patients improved/total) (FRDA patients; [2]): 2/5 | improvement of muscle strength (patients improved/total) (FRDA patients; [2]): 5/5 | general condition (in words) (FRDA patients; [3]): improvement | hand clumsiness (in words) (FRDA patients; [3]): decrease | decrease of left ventricle mass index (FRDA patients; ultrasound, three patients): -21 to -32% | reduction of left ventricle wall (FRDA patients; ultrasound, three patients): -8 to -20% | reduction of septal thickness (FRDA patients; ultrasound, three patients): -31 to -36%

decrease of aconitase activity (aconitases; 3 min with 5 nM Fe^2+ + 8 μM CoQ10 without succinate, then 3 min 250 μM desferrioxamine, FIG. 2D trace c): 77%
Molecule: COC1=C(OC)C(=O)C(CC=C(C)CCC=C(C)CCC=C(C)CCC=C(C)CCC=C(C)CCC=C(C)CCC=C(C)CCC=C(C)CCC=C(C)CCC=C(C)C)=C(C)C1=O [CoQ10]
Iron-induced damages to: Lipids (membrane lipids; [4]): -66 ± 2% | Iron-induced damages to: Lipids (membrane lipids; [5]): -1 ± 0.4% | protection against iron-induced lipoperoxidation (in words) (membrane lipids; 8 μM CoQ10 reduced in situ by 3 min incubation with 10 mM succinate, FIG. 2B trace b): full protection | protection against iron-induced lipoperoxidation (in words) (membrane lipids; 8 μM oxidized CoQ10, absence of succinate, FIG. 2B trace a): did not protect from iron-induced lipoperoxidation

Molecule: SOD: superoxide dismutase, water-soluble antioxidant enzyme
iron-induced damages of the membrane components (in words) (membrane lipids): unable to prevent | Iron-induced damages to: Aconitases (aconitases): -75 ± 1%

Molecule: COC1=C(OC)C(=O)C(CC=C(C)CCC=C(C)CCC=C(C)CCC=C(C)C)=C(C)C1=O [CoQ4]
Iron-induced damages to: Lipids (membrane lipids; [4]): -74 ± 3% | Iron-induced damages to: Lipids (membrane lipids; [5]): -1 ± 1%

Molecule: ferric chloride [Fe^3+]
peroxidation of membrane lipids (in words) (membrane lipids): no damage was observed | peroxidation of membrane lipids (in words) (membrane lipids; listed as oxidized iron): did not significantly after membrane lipids

Molecule: O=C(O)CN(CCN(CC(=O)O)CC(=O)O)CC(=O)O [EDTA]
Iron-induced damages to: Lipids (membrane lipids; 5 nM Fe^2+ + 2 nM EDTA): -2 ± 1% | protection of complex II activity (in words) (complex II; 1 nM EDTA added to the iron-supplemented (5 nM reduced iron) medium, FIG. 1B trace b): fully protected

Molecule: O=C(O)CCC(=O)O [succinate]
Iron-induced damages to: Lipids (membrane lipids; 5 nM Fe^2+ + 10 mM succinate): -58 ± 3% | protection of membrane lipids against iron-induced peroxidation (in words) (membrane lipids; succinate alone): failed to protect | protection of complex II from iron induced damages (in words) (complex II): did not protect complex II

Molecule: N[C@@H](CCC(=O)N[C@@H](CS)C(=O)NCC(=O)O)C(=O)O [glutathione]
iron-induced damages of the membrane components (in words) (membrane lipids): enhancing these damages

Molecule: ferrous chloride [Fe^2+]
peroxidation of membrane lipids (in words) (membrane lipids; listed as Reduced iron): triggered an immediate peroxidation of the membrane lipid | peroxidation of membrane lipids (in words) (membrane lipids; listed as reduced iron): rapid lipoperoxidation | activity of complex II (in words) (complex II; 1 min incubation with 5 nM reduced iron, FIG. 1B trace c): strongly affected | aconitase activity (in words) (aconitases; 10 min incubation with 5 nM reduced iron, FIG. 1C trace b): not affected

Molecule: O=C1O[C@H]([C@@H](O)CO)C(O)=C1O [ascorbate]
iron-induced damages of the membrane components (in words) (membrane lipids): enhancing these damages

B1: catalase: water-soluble antioxidant enzyme (protein, UniProt P04040 2-527, looked up)
Catalase: ADSRDPASDQMQHWKEQRAAQKADVLTTGAGNPVGDKLNVITVGPRGPLLVQDVVFTDEMAHFDRERIPERVVHAKGAGAFGYFEVTHDITKYSKAKVFEHIGKKTPIAVRFSTVAGESGSADTVRDPRGFAVKFYTEDGNWDLVGNNTPIFFIRDPILFPSFIHSQKRNPQTHLKDPDMVWDFWSLRPESLHQVSFLFSDRGIPDGHRHMNGYGSHTFKLVNANGEAVYCKFHYKTDQGIKNLSVEDAARLSQEDPDYGIRDLFNAIATGKYPSWTFYIQVMTFNQAETFPFNPFDLTKVWPHKDYPLIPVGKLVLNRNPVNYFAEVEQIAFDPSNMPPGIEASPDKMLQGRLFAYPDTHRHRLGPNYLHIPVNCPYRARVANYQRDGPMCMQDNQGGAPNYYPNSFGAPEQQPSALEHSIQYSGEVRRFNTANDDNVTQVRAFYVNVLNEEQRKRLCENIAGHLKDAQIFIQKKAVKNFTEVHPDYGSHIQALLDKYNAEKPKNAIHTFVQSGSHLAAREKANL
iron-induced damages of the membrane components (in words) (membrane lipids): unable to prevent | Iron-induced damages to: Aconitases (aconitases): -46 ± 2%
